What all share (assay type): cell-based
Test [1] has as its system Mycobacterium smegmatis ATCC607 VM-R (viomycin-resistant). The experiment in a line: Antibacterial spectrum, serial dilution on 1% glycerin-supplemented nutrient agar. Particulars: Mycolicibacterium smegmatis, ATCC607, read-out: Minimum growth inhibitory concentration. The procedure:
(§1) The antibacterial spectrum of caprazamycin A against a variety of microorganisms were measured on a 1% glycerin-supplemented nutrient agar medium by a serial dilution method according to the standard method as provided by Japanese Society of Chemotherapy.
(§2) The antibacterial spectrum of caprazamycin B against a variety of microorganisms were measured on a 1% glycerin-supplemented nutrient agar medium by a serial dilution method according to the standard method as provided by Japanese Society of Chemotherapy.
(§3) The antibacterial spectrum of caprazamycin C against a variety of microorganisms were measured on a 1% glycerin-supplemented nutrient agar medium by a serial dilution method according to the standard method as provided by Japanese Society of Chemotherapy.
(§4) The antibacterial spectrum of caprazamycin E against a variety of microorganisms were measured on a 1% glycerin-supplemented nutrient agar medium by a serial dilution method according to the standard method as provided by Japanese Society of Chemotherapy.
(§5) The antibacterial spectrum of caprazamycin F against a variety of microorganisms were measured on a 1% glycerin-supplemented nutrient agar medium by a serial dilution method according to the standard method as provided by Japanese Society of Chemotherapy.

The test system of test [2] is Mycobacterium smegmatis ATCC607 KM-R (kanamycin-resistant). Described as above. Particulars: Mycolicibacterium smegmatis, ATCC607, read-out: Minimum growth inhibitory concentration. The procedure:
as §1, §2, §3, §4, §5

Test [3] concerns Mycobacterium smegmatis ATCC607 PM-R (paromomycin-resistant). Described as above. Particulars: Mycolicibacterium smegmatis, ATCC607, read-out: Minimum growth inhibitory concentration. The method, then:
as §1, §2, §3, §4, §5

For test [4], the system named is Mycobacterium vaccae ATCC15483. The description is as above. Particulars: Mycolicibacterium vaccae, read-out: Minimum growth inhibitory concentration. The method, then: as §1, §2, §3, §4, §5
The test system of test [5] is Mycobacterium smegmatis ATCC607 RFP-R (rifampicin-resistant). Described as above. Particulars: Mycolicibacterium smegmatis, ATCC607, read-out: Minimum growth inhibitory concentration. The method, then: as §1, §2, §3, §4, §5
Test [6] relates to Mycobacterium smegmatis ATCC607 SM-R (streptomycin-resistant). The test is described as above. Particulars: Mycolicibacterium smegmatis, ATCC607, read-out: Minimum growth inhibitory concentration. The method, then:
as §1, §2, §3, §4, §5

In another test the test system is Mycobacterium phlei. The description is as above. Particulars: Mycolicibacterium phlei, read-out: Minimum growth inhibitory concentration. The procedure: as §1, §2, §3, §4, §5
In test [7] the test system is Mycobacterium smegmatis ATCC607. The description is as above. Particulars: Mycolicibacterium smegmatis, read-out: Minimum growth inhibitory concentration. The method, then: as §1, §2, §3, §4, §5
The next test relates to Mycobacterium fortuitum. Described as above. Particulars: Mycolicibacterium fortuitum, read-out: Minimum growth inhibitory concentration. The method, then:
as §1, §2, §3, §4, §5

The test system of test [8] is Mycobacterium smegmatis ATCC607 ST-R (streptothricin-resistant). Described as above. Particulars: Mycolicibacterium smegmatis, ATCC607, read-out: Minimum growth inhibitory concentration. The method, then: as §1, §2, §3, §4, §5
Test [9] deals with Mycobacterium smegmatis ATCC607 CPM-R (capreomycin-resistant). The description is as above. Particulars: Mycolicibacterium smegmatis, ATCC607, read-out: Minimum growth inhibitory concentration. The procedure:
as §1, §2, §3, §4, §5

In test [10] the test system is Mycobacterium avium kirchberg NIHJ-1605. The experiment in a line: Antibacterial spectrum, serial dilution in Middlebrook 7H9 liquid medium. Set-up: unit not given here. The procedure:
(§6) The antibacterial spectrum of each of caprazamycins A, B, C, E and F against Mycobacterium tuberculosis, and against atypical acid-fast bacteria, Mycobacterium avium kirchberg and Mycobacterium intracellulare, were measured in a Middlebrook 7H9 liquid medium by a serial dilution method. At the same time, antibacterial spectra of rifampicin (RMP) and isonicotinic acid hydrazide (INH) (as comparative drug) against the above-mentioned acid-fast bacteria were measured by the same serial dilution method.

The subject of test [11] is Mycobacterium tuberculosis H37Rv NIHJ-1633. The description is as above. The arrangement: unit not given here. The method, then: as §6
In test [12] the test system is Mycobacterium intracellulare E-1 NIHJ-1618. Described as above. Set-up: unit not given here. The procedure: as §6

In brackets after ≈: the same amount, converted by molar mass.

Consider `CCCCCCCCCCCCC(CC(=O)OC1CN(C)C(C(OC2OC(CN)C(O)C2O)C2OC(n3ccc(=O)[nH]c3=O)C(O)C2O)C(=O)N(C)C1C(=O)O)OC(=O)CC(C)CC(=O)OC1OC(C)C(OC)C(OC)C1OC` (centres unmarked) [Caprazamycin C, caprazamycin C], for which the MIC in test [1] is 1.56 µg/mL (≈ 1.38 µM); in [2], 0.78 µg/mL (≈ 0.689 µM); in test [3], 1.56 µg/mL (≈ 1.38 µM); in [4] it was 0.39 µg/mL (≈ 0.344 µM); in [5], 1.56 µg/mL (≈ 1.38 µM); in test [6], 1.56 µg/mL (≈ 1.38 µM). Besides, the MIC came out at 1.56 µg/mL (≈ 1.38 µM) with Mycobacterium phlei; 1.56 µg/mL (≈ 1.38 µM) in test [7]; 12.5 µg/mL (≈ 11 µM) in the test on Mycobacterium fortuitum; 1.56 µg/mL (≈ 1.38 µM) in test [8]; 1.56 µg/mL (≈ 1.38 µM) in test [9]. For the same compound, the “Minimum Inhibitory Concentration of Compound tested against Test Bacteria” value (“Minimum Inhibitory Concentration” below) in [10] is below 0.025; in test [11] it was 0.78; in [12], 0.78.
In the case of `CCCCCCCCCCCC(CC(=O)OC1CN(C)C(C(OC2OC(CN)C(O)C2O)C2OC(n3ccc(=O)[nH]c3=O)C(O)C2O)C(=O)N(C)C1C(=O)O)OC(=O)CC(C)CC(=O)OC1OC(C)C(OC)C(OC)C1OC` (centres unmarked) [Caprazamycin E, caprazamycin E], the MIC in [1] worked out at 0.39 µg/mL (≈ 0.349 µM); in test [2] it was 0.78 µg/mL (≈ 0.698 µM); in test [3], 1.56 µg/mL (≈ 1.4 µM); in test [4], 0.39 µg/mL (≈ 0.349 µM); in test [5] it was 0.78 µg/mL (≈ 0.698 µM); in test [6], 1.56 µg/mL (≈ 1.4 µM). Further, the MIC with Mycobacterium phlei came to 1.56 µg/mL (≈ 1.4 µM); in [7], 1.56 µg/mL (≈ 1.4 µM); in the test on Mycobacterium fortuitum, 12.5 µg/mL (≈ 11.2 µM); in [8], 0.78 µg/mL (≈ 0.698 µM); in test [9], 0.39 µg/mL (≈ 0.349 µM). Moreover, the “Minimum Inhibitory Concentration” value in test [10] is below 0.025; in test [11], 0.78; in test [12] it was 0.78.
Consider `COC1C(C)OC(OC(=O)CC(C)CC(=O)OC(CCCCCCCCC(C)C)CC(=O)OC2CN(C)C(C(OC3OC(CN)C(O)C3O)C3OC(n4ccc(=O)[nH]c4=O)C(O)C3O)C(=O)N(C)C2C(=O)O)C(OC)C1OC` (centres unmarked) [Caprazamycin F, caprazamycin F], for which the MIC in [1] was determined as 1.56 µg/mL (≈ 1.4 µM); in test [2] it was 0.78 µg/mL (≈ 0.698 µM); in test [3], 0.78 µg/mL (≈ 0.698 µM); in test [4], 0.78 µg/mL (≈ 0.698 µM); in test [5] it was 0.78 µg/mL (≈ 0.698 µM); in [6], 1.56 µg/mL (≈ 1.4 µM). Also, the MIC with Mycobacterium phlei worked out at 1.56 µg/mL (≈ 1.4 µM); in test [7], 1.56 µg/mL (≈ 1.4 µM); in the test with Mycobacterium fortuitum, 12.5 µg/mL (≈ 11.2 µM); in [8], 0.78 µg/mL (≈ 0.698 µM); in test [9], 0.78 µg/mL (≈ 0.698 µM). The “Minimum Inhibitory Concentration” value was 0.1 in test [10] and 1.56 in [12].

The record behind these values is patent US6780616B1, “Antibiotic caprazamycins and process for producing the same” (Zaidan Hojin Biseibutsu Kagaku Kenkyu Kai Corp., priority 1999, dated 2004).
